Key:
mature and pre-miR-21 = assay: RT-qPCR in RNase L-Targeting sgRNA (knock-down) MDA-MB-231 cells; format: cell-based; conditions: RNase L knocked down by CRISPR
Source text: (§1) Two CRISPR-modified MDA-MB-231 cell lines with either a scrambled control guide RNA (“Control sgRNA”; RNase L is expressed) or with an RNase L-targeting guide RNA (“RNase L-Targeting sgRNA”; RNase L protein abundance is knocked down) were used to complete these studies.
Generation of the RNase L Knockdown MDA-MB-231 Cell Line. RNase L knockdown and control MDA-MB-231 cell lines were generated by CRISPR as previously described.^1 Briefly, lentiviral constructs containing Cas9 and gRNAs against RNASEL or a negative control were purchased from Transomic Technologies, Inc. [catalog #TEVH-1249025-pCLIP-ALL-hCMVPuro (KD+) and TELA1015 (KD−)] and packaged by transfecting HEK293T cells (ATCC, catalog #CRL-11268) using Lipofectamine 2000 transfection reagent (Invitrogen; catalog #11668500) and Cellecta packaging mix (Cellecta, catalog #CPCP-K2A) in Opti-MEM (Gibco, catalog #31985070). Virus supernatants were harvested 72 h post-transfection and filtered through a 0.45 μm PES filter (mdi Membrane Technologies Inc., catalog #SYPL0602MNXX204). […]
RNA Isolation and Quantitative Real-Time Polymerase Chain Reaction (RT-qPCR). […] RT-qPCR was performed on a QuantStudio5™ Real-Time PCR Instrument (Applied Biosystems) using Power SYBR Green Master Mix (Applied Biosystems), and the resulting data were analyzed using the ΔΔCt method.

mature miR-21 = assay: RT-qPCR of mature miR-21 in CRISPR-Control sgRNA MDA-MB-231 cells; format: cell-based; conditions: 5 μM, 48 h treatment, RNase L expressed
Experimental: as §1
(§2) MDA-MB-231 cells were treated with compound (0.1% DMSO final concentration) for 24 h, followed by removal of the compound-containing medium and redosing in growth medium for an additional 24 h (total treatment period of 48 h), with the exception of invasion assays in which the cells were treated overnight. For the time-course experiment, MDA-MB-231 cells were treated for the indicated lengths of time. MCF-10A cells, also used in invasion assays, were treated with compound overnight (0.1% DMSO final concentration).
(§3) RNA Isolation and Quantitative Real-Time Polymerase Chain Reaction (RT-qPCR). MDAMB-231 cells were cultured as described in “Cell Culture.” After compound treatment, total RNA was extracted using a Quick-RNA Miniprep Kit (Zymo) per the manufacturer's instructions. […] RT-qPCR was performed on a QuantStudio5™ Real-Time PCR Instrument (Applied Biosystems) using Power SYBR Green Master Mix (Applied Biosystems), and the resulting data were analyzed using the ΔΔCt method.

pre-miR-21 and RNase L = biological target: T1, pre-miR-21 and RNase L (Homo sapiens, UniProt Q05823, H672N); assay: Co-immunoprecipitation of pre-miR-21 and RNase L; format: binding; conditions: WT 32P-pre-miR-21, inactive RNase L
T1 construct: GST (N, cleaved yes); made in house; host or cells: BL21 AI Escherichia coli
T1 sequence (Q05823 1-741 H672N): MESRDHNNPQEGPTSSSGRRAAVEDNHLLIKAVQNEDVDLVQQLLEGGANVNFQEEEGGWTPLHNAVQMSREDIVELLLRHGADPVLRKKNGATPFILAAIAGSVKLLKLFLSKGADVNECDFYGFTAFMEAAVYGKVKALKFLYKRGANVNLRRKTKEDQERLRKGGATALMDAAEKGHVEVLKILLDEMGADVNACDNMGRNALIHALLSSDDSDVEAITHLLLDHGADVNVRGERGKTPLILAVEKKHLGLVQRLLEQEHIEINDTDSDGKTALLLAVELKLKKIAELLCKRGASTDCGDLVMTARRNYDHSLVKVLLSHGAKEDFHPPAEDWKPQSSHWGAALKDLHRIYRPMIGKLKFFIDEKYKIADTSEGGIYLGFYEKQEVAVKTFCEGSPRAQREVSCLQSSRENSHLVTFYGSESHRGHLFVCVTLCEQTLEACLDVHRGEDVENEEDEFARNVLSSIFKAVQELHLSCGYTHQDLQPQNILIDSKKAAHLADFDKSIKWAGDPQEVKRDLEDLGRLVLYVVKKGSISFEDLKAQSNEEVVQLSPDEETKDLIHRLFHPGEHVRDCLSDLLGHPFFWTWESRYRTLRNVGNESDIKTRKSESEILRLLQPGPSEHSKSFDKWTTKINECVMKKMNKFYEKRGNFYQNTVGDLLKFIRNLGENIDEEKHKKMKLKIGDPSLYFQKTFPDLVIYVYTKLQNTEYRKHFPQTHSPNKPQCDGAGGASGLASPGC
Experimental: Co-Immunoprecipitation of pre-miR-2I and RNase L. Approximately 20,000 cpm of 32P 5′-end labeled WT or mutant pre-miR-21 or an RNA construct where the A-bulge was mutated to a base pair (5′-[…] UGGGCUGU-3′) was folded in 1× RNase L Assay Buffer for 1 min at 95° C. and cooled on ice for 10 min. Following cooling, β-mercaptoethanol (7 mM), ATP (50 μM), and MgCl2 (1 mM) were added to the solution. The solution was aliquoted, and compounds were incubated in solution for 15 min (1% DMSO final concentration). […] Beads were then washed with 1×PBS supplemented with 0.02% (v/v) Tween-20. Radioactive signal in the supernatant and associated with the beads was quantified by a Beckman Coulter LS6500 Liquid Scintillation Counter. Relative RNA enrichment was calculated by comparing the radioactive signal associated with beads compared to the total radioactive signal from the beads plus the supernatant.

pre-miR-21 = assay: RT-qPCR of pre-miR-21 in CRISPR-Control sgRNA MDA-MB-231 cells; format: cell-based; conditions: 5 μM
Experimental: as §1, §2, §3

co-immunoprecipitation of RNA with RNase L (pre-miR-21 and RNase L): pulled down with RNase L
SMILES: CNC(=O)[C@H](c1ccccc1)N(C)Cc1ccc(-c2cccc(-c3sccc3NC(=O)CCOCCOCCOCCC(=O)NCCN3CCN(c4ccc5nc(-c6c(N)c7c(F)cccc7[nH]c6=O)[nH]c5c4)CC3)c2)cc1 [RiboTAC 7, (S)—N-(2-(4-(2-(4-amino-5-fluoro-2-oxo-1,2-dihydroquinolin-3-yl)-1H-benzo[d]imidazol-6-yl)piperazin-1-yl)ethyl)-3-(2-(2-(3-((2-(4′-((methyl(2-(methylamino)-2-oxo-1-phenylethyl)amino)methyl)-[1,1′-biphenyl]-3-yl)thiophen-3-yl)amino)-3-oxopropoxy)ethoxy)ethoxy)propanamide]
effect on mature and pre-miR-21 levels (mature and pre-miR-21): inactive
reduction of mature miR-21 abundance (mature miR-21): ~40%
reduction of pre-miR-21 abundance (pre-miR-21; 48 h treatment, RNase L expressed): ~30%
treatment time at which pre-miR-21 degradation is first detectable (pre-miR-21; time-course): 48 h

From patent US20260167614A1, “IDENTIFICATION OF SMALL MOLECULES THAT RECRUIT AND ACTIVATE RNASE L” (UNIVERSITY OF FLORIDA RESEARCH FOUNDATION, INCORPORATED, priority 2022, published 2026)
